# Measured values taken from patent US4450173A, “Compounds and method for treatment or prophylaxis of cardiac disorders” (American Hospital Supply Corporation, priority 1982, dated 1984).
# Counter-ions that a name gives are not always drawn. Like-named read-outs stand apart in the source and are kept apart here.
# Key:
# [1] = test system: guinea pig right atria and guinea pig tracheal strips; assay: Cardioselectivity, KB tracheal/KB atrial; format: cell-based
# Experimental: Several of the compounds of the present invention were tested for β-blocking activity in vitro using guinea pig right atria and guinea pig tracheal strips mounted in a tissue bath containing oxygenated (95% O2 -5% CO2) Krebs physiological salt solution at 37° C. Each tissue was suspended between a fixed glass rod and a Statham® Universal Transducer connected to a Beckman® recorder. Atria were allowed to beat spontaneously under a loading tension of approximately 0.5 gm. Intrinsic depressant for stimulant activity was determined for each compound by progressively increasing concentrations in the tissue baths at 60-minute intervals. Tissues were not washed between increments. […]. Changes in rate in response to isoproterenol were measured in the absence and presence of test compounds. Spiral strips of guinea pig trachea were suspended under 5 gm resting tension and incubated with phentolamine, tropolone and cocaine. Active tension was generated by addition of carbachol (3.0×10^-7 M) and decreases in tension in response to isoproterenol were quantitated. Cumulative concentration-response curves were produced with isoproterenol both before and after 60 minute incubation of test compounds with atria and trachea. The blocking potency of test compounds was estimated by computing pA2 values (-log KB) by the method of Furchgott, The Pharmacological Differentiation of Adrenergic Receptors, Ann. N.Y. Acad. Sci.; 139: 553-570 (1967). Comparison of blockade of right atrial and tracheal responses to isoproterenol permitted assessment of cardioselectivity of test compounds; […]. A ratio greater than one indicates cardioselectivity. […]
# [2] = test system: heart rate response to isoproterenol (β-receptor mediated tachycardia); assay: Duration of β-blockade in vivo in anesthetized dogs, 40-minute infusion; design: species or system dog; conditions: for ED50: Canis lupus familiaris, iv, 40 min, read-out: Potency (mg/kg/40 min); for 80% Recovery Time: after 40-minute infusion, normalized to 50% inhibition
# Experimental: (§1) The duration of β-blockade was determined in vivo using pentobartital-anesthetized dogs instrumented for measurement of heart rate using a Beckman® cardiotachometer triggered electronically by a phasic aortic blood pressure signal. Both vagus nerves were severed in the cervical region and the animals were mechanically ventilated. Two experimental designs were used. The first employed a 40-minute infusion of test compound and the second used a 3-hour infusion of test compound. In the 40-minute model, isoproterenol was infused into a foreleg vein at the rate of 0.5 μg/kg/min to induce a β-receptor mediated tachycardia. Various doses of test compound are then infused into a femoral vein over a period of 40 minutes. This infusion was then terminated and recovery from blockade was quantitated. […] This cumulative dose is expressed as mg/kg and is an indication of potency. The time period required for 80% recovery of heart rate response for each dose of test drug was also measured to quantitate duration of action. […] Test compounds were dissolved in 0.9% NaCl and infused at a rate of 0.05 mL/kg/min or less. In the 3-hour infusion model, bolus doses of isoproterenol (0.4 μg/kg) were used to assess the degree of β-blockade and recovery from β-blockade after termination of the infusion. The doses were spaced at 10-minute intervals and were given before, during and following the infusion of test compounds. The infusion rate was adjusted so that at the end of the 3-hour infusion period the degree of isoproterenol inhibition averaged about 50% of control.
# [3] = molecular target: guinea pig tracheal strips (Cavia porcellus, UniProt Q8K4Z4); assay: cell-based; format: cell-based; conditions: for pA2 Trachea: guinea pig trachea, carbachol tension, isoproterenol, 60 minute incubation, pA2 = -log KB; for Kb: read-out: pA2 Trachea (converted)
# Sequence of guinea pig tracheal strips (Q8K4Z4 whole entry): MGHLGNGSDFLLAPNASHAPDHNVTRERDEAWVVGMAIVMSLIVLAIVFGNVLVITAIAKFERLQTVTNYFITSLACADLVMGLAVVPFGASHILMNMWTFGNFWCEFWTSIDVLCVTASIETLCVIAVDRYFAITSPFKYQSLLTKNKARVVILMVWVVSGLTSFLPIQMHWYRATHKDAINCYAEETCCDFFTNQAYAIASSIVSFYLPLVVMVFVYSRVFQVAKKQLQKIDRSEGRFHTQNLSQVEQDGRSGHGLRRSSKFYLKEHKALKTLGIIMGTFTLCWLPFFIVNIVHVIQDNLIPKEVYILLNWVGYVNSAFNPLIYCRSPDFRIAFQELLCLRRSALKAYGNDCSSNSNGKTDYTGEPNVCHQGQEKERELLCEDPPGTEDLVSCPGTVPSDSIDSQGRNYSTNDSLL
# Experimental: Each tissue was suspended between a fixed glass rod and a Statham® Universal Transducer connected to a Beckman® recorder. Atria were allowed to beat spontaneously under a loading tension of approximately 0.5 gm. Intrinsic depressant for stimulant activity was determined for each compound by progressively increasing concentrations in the tissue baths at 60-minute intervals. Tissues were not washed between increments. […] Changes in rate in response to isoproterenol were measured in the absence and presence of test compounds. Spiral strips of guinea pig trachea were suspended under 5 gm resting tension and incubated with phentolamine, tropolone and cocaine. Active tension was generated by addition of carbachol (3.0×10^-7 M) and decreases in tension in response to isoproterenol were quantitated. Cumulative concentration-response curves were produced with isoproterenol both before and after 60 minute incubation of test compounds with atria and trachea. The blocking potency of test compounds was estimated by computing pA2 values (-log KB) by the method of Furchgott, The Pharmacological Differentiation of Adrenergic Receptors, Ann. […] A ratio greater than one indicates cardioselectivity.
# [4] = Disappearance in vitro in dog liver homogenate; format: in vitro ADME; conditions: 50 μg in 1 mL added to 1 mL of 33% (w/v) dog liver homogenate, 37° C.; read-out: T1/2 Dog Liver Homogenate
# Experimental: (§2) The rate of disappearance of a compound is expressed as the half-life (T1/2), which is the time period in which one-half of the initial amount of compound tested disappears. In each experiment, 1 mL of a solution containing 50 μg of the test compound was added to 1 mL of whole blood or 1 mL of a 33% (w/v) liver homogenate. […] At the designated time periods, the test mixtures were removed from the incubator and transferred to a 0° C. ice bath. Acetonitrile (2 mL) was immediately added and the mixtures were mixed to stop enzymatic hydrolysis. Zero time samples were prepared by adding 2 mL of acetonrile to denature the proteins prior to addition of the test compounds. […] The half life of each test compound was determined graphically by plotting the decrease in concentration as a function of time.
# [5] = test system: heart rate response to isoproterenol; assay: Duration of β-blockade in vivo in anesthetized dogs, 3-hour infusion; design: species or system dog; conditions: for ED50: Canis lupus familiaris, iv, 3-hour infusion, read-out: Potency (mg/kg/180 min); for ED50 / % I (Percent inhibition of heart rate response to isoproterenol): bolus isoproterenol 0.4 μg/kg; for 80% Recovery Time: after 3-hour infusion; for % I (Percent inhibition of heart rate response to isoproterenol): end of 3-hour infusion
# Experimental: as §1
# [6] = Disappearance in vitro in human whole blood; format: in vitro ADME; conditions: 50 μg in 1 mL added to 1 mL human whole blood, 37° C.; read-out: T1/2 Human Whole Blood
# Experimental: as §2
# [7] = Disappearance in vitro in dog whole blood; format: in vitro ADME; conditions: 50 μg in 1 mL added to 1 mL dog whole blood, 37° C.; read-out: T1/2 Dog Whole Blood
# Experimental: as §2
# guinea pig right atria = guinea pig right atria (Cavia porcellus, UniProt H0W3H1); assay: β-blocking activity in vitro, guinea pig right atria (rate response to isoproterenol); format: cell-based; conditions: for pA2 Atria: guinea pig right atria, isoproterenol, 60 minute incubation, pA2 = -log KB
# Sequence of guinea pig right atria (H0W3H1 1-470): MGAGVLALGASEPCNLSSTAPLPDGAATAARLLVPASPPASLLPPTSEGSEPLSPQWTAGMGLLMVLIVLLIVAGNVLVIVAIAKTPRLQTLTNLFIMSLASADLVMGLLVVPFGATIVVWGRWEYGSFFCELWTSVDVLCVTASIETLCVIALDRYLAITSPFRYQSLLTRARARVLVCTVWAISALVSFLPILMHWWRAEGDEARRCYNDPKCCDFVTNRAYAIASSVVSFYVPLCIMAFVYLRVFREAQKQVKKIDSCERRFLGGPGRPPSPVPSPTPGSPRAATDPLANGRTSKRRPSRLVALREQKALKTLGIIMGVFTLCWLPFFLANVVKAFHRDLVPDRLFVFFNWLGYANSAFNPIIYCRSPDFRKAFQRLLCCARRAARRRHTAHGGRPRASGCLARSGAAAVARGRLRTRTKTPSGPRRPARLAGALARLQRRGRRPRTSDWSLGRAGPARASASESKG
# Experimental: Each tissue was suspended between a fixed glass rod and a Statham® Universal Transducer connected to a Beckman® recorder. Atria were allowed to beat spontaneously under a loading tension of approximately 0.5 gm. Intrinsic depressant for stimulant activity was determined for each compound by progressively increasing concentrations in the tissue baths at 60-minute intervals. Tissues were not washed between increments. The maximum concentration showing little or no cardiodepressant activity was chosen for blockade experiments. Changes in rate in response to isoproterenol were measured in the absence and presence of test compounds. Spiral strips of guinea pig trachea were suspended under 5 gm resting tension and incubated with phentolamine, tropolone and cocaine. Active tension was generated by addition of carbachol (3.0×10^-7 M) and decreases in tension in response to isoproterenol were quantitated. Cumulative concentration-response curves were produced with isoproterenol both before and after 60 minute incubation of test compounds with atria and trachea. The blocking potency of test compounds was estimated by computing pA2 values (-log KB) by the method of Furchgott, The Pharmacological Differentiation of Adrenergic Receptors, Ann. […] The degree of cardioselectivity was estimated from the ratio, KB tracheal/KB atrial (10^(pA.sbsp.2^atria-pA.sbsp.2^trachea)). A ratio greater than one indicates cardioselectivity. Test drugs were dissolved in distilled water and added to the bath (30 mL) in a volume of 10 or 100 μL.
# [8] = ratio KB tracheal/KB atrial, greater than one indicates cardioselectivity
# [9] = read-out: pA2 Atria (converted)
compound,measurement,setting,value
"CCOC(=O)CCNCC(O)COc1ccccc1 (stereo not shown) [Example III, Ethyl 3-[N-[2-Hydroxy-3-phenoxy)propyl]amino]propionate Oxalate]",Cardioselectivity,[1]; [8],25
same,ED50,[2],12.6 ± 4.1 mg/kg
same,80% Recovery Time,[2]; dogs,29 ± 13 min
same,pA2 Trachea,[3],5.9
CCOC(=O)CCNCC(O)COc1cccc(Cl)c1 (stereo not shown) [XXII],Cardioselectivity,[1]; [8],5
same,half-life,[4],3 ± 3 min
same,ED50,[5],8.5 mg/kg
same,80% Recovery Time,[5],> 60 min
same,% I (Percent inhibition of heart rate response to isoproterenol),[5],77%
same,half-life,[6],1.97 ± 0.433 h
same,half-life,[7],0.667 ± 0.25 h
same,pA2 Trachea,[3],6.7
"CC(=O)Nc1ccc(OCC(O)CNC(C)C)cc1 (stereo not shown) [Practolol, reference compound]",80% Recovery Time,[2]; dogs,61 min
COc1ccc(CCOC(=O)CCNCC(O)COc2ccccc2C)cc1OC (stereo not shown) [XXVIII],Cardioselectivity,[1],2.5
same,ED50,[5],168 mg/kg
same,80% Recovery Time,[5],> 60 min
same,% I (Percent inhibition of heart rate response to isoproterenol),[5],85%
same,pA2 Trachea,[3],6.6
same,pA2 Atria,guinea pig right atria,7.0
"CCOC(=O)CNCC(O)COc1ccccc1 (stereo not shown) [Example I, Ethyl N-(2-Hydroxy-3-phenoxypropyl) glycinate Oxalate]",Cardioselectivity,[1]; [8],1
same,Potency (mg/kg/40 min),"[2]; cumulative dose over 40-minute infusion, normalized to 50% inhibition of isoproterenol response, dogs",very low
same,pA2 Trachea,[3],5.6
Cc1ccccc1OCC(O)CNCCC(=O)OCC(F)(F)F (stereo not shown) [XX],Kb,guinea pig right atria; [9],2000 nM
CCOC(=O)CCNCC(O)COc1cccc(C)c1 (stereo not shown) [XXIII],Cardioselectivity,[1]; [8],1.6
same,pA2 Trachea,[3],6.5
CCOC(=O)c1ccc(CNCC(O)COc2ccccc2C)cc1 (stereo not shown) [XV],Cardioselectivity,[1],5
same,half-life,[4],9 ± 6 min
same,half-life,[6],> 3 h
same,half-life,[7],> 3 h
same,Kb,[3],1260 nM
"CCOC(=O)C(Cc1ccc(O)cc1)NCC(O)COc1ccccc1 (stereo not shown) [Example V, Ethyl N[(2-Hydroxy-3-phenoxy)propyl]tyrosinate]",pA2 Trachea,[3],inactive
same,pA2 Atria,guinea pig right atria,inactive
CCOC(=O)CCNCC(O)COc1ccccc1Cl (stereo not shown) [XXI],Cardioselectivity,[1]; [8],6
same,half-life,[4],4 ± 3 min
same,ED50,[5],10.9 mg/kg
same,80% Recovery Time,[5],> 60 min
same,% I (Percent inhibition of heart rate response to isoproterenol),[5],77%
same,half-life,[6],2.12 ± 0.833 h
same,half-life,[7],1.23 ± 0.35 h
same,pA2 Trachea,[3],6.6
CCOC(=O)CCCNCC(O)COc1ccccc1C (stereo not shown) [XI],Cardioselectivity,[1]; [8],5
same,ED50,[2],3.1 ± 0.7 mg/kg
same,80% Recovery Time,[2]; dogs,15 ± 2 min
same,half-life,[6],1.95 ± 0.65 h
same,half-life,[7],> 3 h
same,pA2 Trachea,[3],6.7
CCOC(=O)CCNCC(O)COc1c(C)cccc1C (stereo not shown) [XXVI],Kb,guinea pig right atria; [9],794 nM
COC(=O)c1ccc(CNCC(O)COc2ccccc2C)cc1 (stereo not shown) [XVI],Cardioselectivity,[1]; [8],1.6
same,Kb,[3],200 nM
"CCOC(=O)CCNCC(O)COc1ccccc1C(=O)OC (stereo not shown) [VIII, Ethyl 3-[N-[2-Hydroxy-3-[2-(methoxycarbonyl)phenoxy]propyl]amino]propionateOxalate Hemihydrate]",Cardioselectivity,[1],1.0
same,ED50,[5],27.4 ± 6 mg/kg
same,80% Recovery Time,[5],10 ± 2 min
same,% I (Percent inhibition of heart rate response to isoproterenol),[5],53 ± 2%
same,pA2 Trachea,[3],6.6
same,Kb,guinea pig right atria; [9],251 nM
"CCOC(=O)CNCC(O)COc1cccc2ccccc12 (stereo not shown) [Example II, Ethyl N-[[2-Hydroxy-3-(1-naphthoxy]propyl]glycinate Oxalate Hemihydrate]",80% Recovery Time,[2]; dogs,53 ± 11 min
"CCOC(=O)CCNCC(O)COc1ccc(Cl)cc1 (stereo not shown) [Example VI, Ethyl 3[N-[3-[4-(chlorophenoxy)-2-hydroxy]propyl]amino]propionate Hydrochloride]",Cardioselectivity,[1]; [8],6
same,pA2 Trachea,[3],5.6
"CCOC(=O)CCNCC(O)COc1ccc(CCC(=O)OC)cc1.Cl (stereo not shown) [Example VII, Ethyl 3-[N-[2-Hydroxy-3-[4-[2-(methoxycarbonyl)ethyl]phenoxy]propyl]amino]propionate Hydrochloride]",Cardioselectivity,[1]; [8],> 8
same,Kb,[3],> 10000 nM
same,Kb,guinea pig right atria; [9],1260 nM
CCOC(=O)CCCNCC(O)COc1ccccc1 (stereo not shown) [Example IV],pA2 Trachea,[3],6.0
CCOC(=O)CNCC(O)COc1ccccc1C (stereo not shown) [XXVII],Cardioselectivity,[1]; [8],0.5
same,pA2 Trachea,[3],6.2
Cc1ccccc1OCC(O)CNCCC(=O)Oc1ccc(F)cc1 (stereo not shown) [XIX],Kb,guinea pig right atria; [9],2000 nM
"CC(C)NCC(O)COc1cccc2ccccc12 (stereo not shown) [Propranolol, reference compound]",80% Recovery Time,[2]; dogs,46 min
CCOC(=O)CCNCC(O)COc1cccc(OC)c1 (stereo not shown) [XXIV],Cardioselectivity,[1]; [8],.5
same,pA2 Trachea,[3],6.7
COC(=O)CCNCC(O)COc1ccccc1C (stereo not shown) [XVII],Cardioselectivity,[1],1.6
same,half-life,[4],9 ± 8 min
same,ED50,[5],4.4 mg/kg
same,80% Recovery Time,[5],27 ± 4 min
same,% I (Percent inhibition of heart rate response to isoproterenol),[5],56 ± 4%
same,half-life,[6],2.47 ± 0.0333 h
same,half-life,[7],0.867 ± 0.15 h
same,pA2 Trachea,[3],7.0
CCOC(=O)CCNCC(O)COc1ccc(OC)cc1 (stereo not shown) [XXV],ED50,[2],17.2 ± 1.2 mg/kg
same,80% Recovery Time,[2]; dogs,11 ± 2 min
same,half-life,[4],4 ± 2.5 min
same,half-life,[6],2.63 ± 0.133 h
same,half-life,[7],> 3 h
COC(=O)CCNCC(O)COc1cccc2ccccc12 (stereo not shown) [XXIX],Cardioselectivity,[1]; [8],0.3
same,Kb,[3],25.1 nM
Cc1ccccc1OCC(O)CNCCC(=O)Oc1ccccc1 (stereo not shown) [XVIII],ED50,[5],54 ± 14 mg/kg
same,80% Recovery Time,[5],> 60 min
same,% I (Percent inhibition of heart rate response to isoproterenol),[5],54 ± 8%
same,Kb,guinea pig right atria; [9],398 nM
